Test results published in ChEMBL document CHEMBL1157377, “Atorvastatin is 10-fold more active in vitro than other statins against Plasmodium falciparum” (Antimicrob Agents Chemother, 2007).

Tests used:
Plasmodium falciparum [1] = assay: Antiplasmodial activity against chloroquine-resistant Plasmodium falciparum W2; assay type: functional, organism-based
Plasmodium falciparum [2] = assay: Antiplasmodial activity against chloroquine-sensitive Plasmodium falciparum IMT031; assay type: functional, organism-based
Plasmodium falciparum [3] = assay: Antiplasmodial activity against chloroquine-resistant Plasmodium falciparum FCR3; assay type: functional, organism-based
Plasmodium falciparum [4] = assay: Antiplasmodial activity against chloroquine-resistant Plasmodium falciparum Bre1; assay type: functional, organism-based
Plasmodium falciparum [5] = assay: Antiplasmodial activity against chloroquine-sensitive Plasmodium falciparum D6; assay type: functional, organism-based
Plasmodium falciparum [6] = assay: Antiplasmodial activity against chloroquine-sensitive Plasmodium falciparum 3D7; assay type: functional, organism-based
L6 = assay: Toxicity against rat L6 cells assessed as induction of cell death at 100 uM; assay type: cell-based; details: l6, 100 µM

SMILES	IC50 (Plasmodium falciparum [1]; Plasmodium falciparum, W2) [µM]	IC50 (Plasmodium falciparum [2]) [µM]	IC50 (Plasmodium falciparum [3]) [µM]	IC50 (Plasmodium falciparum [4]; Plasmodium falciparum, Bre1) [µM]	IC50 (Plasmodium falciparum [5]) [µM]	IC50 (Plasmodium falciparum [6]) [µM]	IC50 (Plasmodium falciparum [1]) [µM]	IC50 (Plasmodium falciparum [4]) [µM]	IC90 (Plasmodium falciparum [1]; Plasmodium falciparum, W2) [µM]	IC90 (Plasmodium falciparum [2]) [µM]	IC90 (Plasmodium falciparum [3]) [µM]	IC90 (Plasmodium falciparum [4]; Plasmodium falciparum, Bre1) [µM]	IC90 (Plasmodium falciparum [5]) [µM]	IC90 (Plasmodium falciparum [6]) [µM]	Activity (L6) [%]
CCC(C)(C)C(=O)O[C@H]1C[C@@H](C)C=C2C=C[C@H](C)[C@H](CC[C@@H](O)C[C@@H](O)CC(=O)O)[C@H]21	58.9	36.9	76.7	48.4	51.3	69.8									
CC[C@H](C)C(=O)O[C@H]1C[C@@H](C)C=C2C=C[C@H](C)[C@H](CC[C@@H](O)C[C@@H](O)CC(=O)O)[C@H]21	103	57.8	43.9	52.6	44.3	95.3									
CC[C@H](C)C(=O)O[C@H]1CCC=C2C=C[C@H](C)[C@H](CC[C@@H](O)C[C@@H](O)CC(=O)O)[C@H]21 [listing 1 of 2 here]		> 200	> 200	> 200	> 200	> 200	88.5								
CC[C@H](C)C(=O)O[C@H]1CCC=C2C=C[C@H](C)[C@H](CC[C@@H](O)C[C@@H](O)CC(=O)O)[C@H]21 [listing 2 of 2 here]							> 200	102							
CC(C)c1c(C(=O)Nc2ccccc2)c(-c2ccccc2)c(-c2ccc(F)cc2)n1CC[C@@H](O)C[C@@H](O)CC(=O)O [ATORVASTATIN CALCIUM]	4.8	5.3	5.1	5.8	5.8	11.8			14.8	15.8	23.6	24	18.1	39	
CC(C)c1c(C(=O)Nc2ccccc2)c(-c2ccccc2)c(-c2ccc(F)cc2)n1CC[C@@H](O)C[C@@H](O)CC(=O)O [ATORVASTATIN]															27
CC(C)n1c(/C=C/C(O)CC(O)CC(=O)O)c(-c2ccc(F)cc2)c2ccccc21 (stereo not drawn) [FLUVASTATIN SODIUM]	90.2	87.1	116	92.5	92.3	108									
CC[C@H](C)C(=O)O[C@H]1C[C@@H](C)C=C2C=C[C@H](C)[C@H](CC[C@@H]3C[C@@H](O)CC(=O)O3)[C@H]21 [LOVASTATIN]	> 200	> 200	> 200	> 200	> 200	> 200									
CC[C@H](C)C(=O)O[C@H]1CCC=C2C=C[C@H](C)[C@H](CC[C@@H]3C[C@@H](O)CC(=O)O3)[C@H]21 [MEVASTATIN]	> 200	> 200	> 200	> 200	> 200	> 200									
CC[C@H](C)C(=O)O[C@H]1C[C@H](O)C=C2C=C[C@H](C)[C@H](CC[C@@H](O)C[C@@H](O)CC(=O)O)[C@H]21 [PRAVASTATIN SODIUM]	> 200	> 200	> 200	> 200	> 200	> 200									
CCC(C)(C)C(=O)O[C@H]1C[C@@H](C)C=C2C=C[C@H](C)[C@H](CC[C@@H]3C[C@@H](O)CC(=O)O3)[C@H]21 [SIMVASTATIN]	> 200	> 200	> 200	> 200	> 200	> 200									
